Paper PMC10057893, “Synthesis and Biological Evaluation of New Schiff Bases Derived from 4-Amino-5-(3-fluorophenyl)-1,2,4-triazole-3-thione” (Molecules, 2023)
In brackets after ≈: the same amount, converted by molar mass. Like-named read-outs stand apart in the source and are kept apart here.

Columns and labels:
[1] = system: Candida krusei ATCC 14243; test: Broth microdilution MIC/MFC, antifungal; assay type: cell-based; conditions: Pichia kudriavzevii, ATCC14243
Experimental: (§1) To determine the antifungal activity of the newly synthesized Schiff bases against the reference strains of Candida spp., the broth microdilution method was used according to the EUCAST [52] and Clinical and Laboratory Standards Institute (CLSI) guidelines with some modifications to the medium. Before in vitro antifungal activity detection, the basic concentration of 1000 µg/mL of each compound was prepared with Mueller–Hinton broth (BioMaxima, Lublin, Poland) supplemented with 2% glucose (MHB+2% glucose). […] The final concentrations of the Schiff bases ranged from […] to 1000 µg/mL. All the reference strains of Candida spp. used were first subcultured to the Mueller–Hinton agar medium (BioMaxima, Lublin, Poland) with 2% glucose (MHA +2% glucose) at 37 °C for 24 h. Next, 2 µL of appropriate fungal suspensions was added to each well containing 100 µL of MHB + 2% glucose and the various concentrations of the tested Schiff bases.
(§2) After incubation, 5 μL of the broth media cultured with bacteria or fungi were removed from each well of the plates used in the MIC experiments. Next, they were culturd onto the surface of the MHA medium (BioMaxima, Lublin, Poland) plate for bacteria or MHA +2% glucose plate for yeasts. The inoculated plates were incubated in the conditions mentioned above. After incubation, a visual reading of MBC or MFC values was made. […] Three replicates for each strain and compound were performed.

[2] = system: Candida tropicalis ATCC 1369; test: Broth microdilution MIC/MFC, antifungal; assay type: cell-based; conditions: ATCC1369
Experimental: as §1, §2

[3] = system: Candida albicans ATCC 10231; test: Broth microdilution MIC/MFC, antifungal; assay type: cell-based; conditions: for MIC: ATCC10231
Experimental: as §1, §2

[4] = system: Candida lusitaniae ATCC 3449; test: Broth microdilution MIC/MFC, antifungal; assay type: cell-based; conditions: Clavispora lusitaniae, ATCC3449
Experimental: as §1, §2

[5] = system: Candida glabrata ATCC 15126; test: Broth microdilution MIC/MFC, antifungal; assay type: cell-based; conditions: Nakaseomyces glabratus, ATCC15126
Experimental: as §1, §2

[6] = system: Candida glabrata ATCC 90030; test: Broth microdilution MIC/MFC, antifungal; assay type: cell-based; conditions: Nakaseomyces glabratus, ATCC90030
Experimental: as §1, §2

Candida auris CDC B11903 = test: Broth microdilution MIC/MFC, antifungal; assay type: cell-based; conditions: Candidozyma auris, CDCB11903
Experimental: as §1, §2

MTT cell viability assay = assay type: cell-based; conditions: human, HaCaT cells (immortal keratinocytes), HaCaT normal cell line, read-out: Cytotoxic activity IC50 (converted)
Experimental: (§3) All the cell lines were purchased from the American Type Culture Collection (ATCC, Rockville, MD, USA) and cultured in strictly defined conditions according to the recommended ATCC protocol. The PC3 cells were cultured in RPMI 1640 (Roswell Park Memorial Institute, Biowest SAS, Nuaillé, France), while the MDA-MB-231 and HaCaT cells were maintained in DMEM (Dulbecco’s Modified Eagle’s Medium, Biowest SAS, Nuaillé, France) supplemented with 1% streptomycin and penicillin and in 10% heat-inactivated fetal bovine serum (FBS, Gibco BRL San Francisco, CA, USA) with 1% streptomycin and penicillin. The cells were incubated in a 37 °C/5% CO2 humidified incubator. They were cultured until 80–90% confluence was achieved. Then, they were harvested by treatment with 0.25% trypsin-0.02% EDTA (Gibco BRL, San Francisco, CA, USA) and used in the experiments. Untreated cells were used as a control. […] After 24 h of incubation, the culture medium was replaced with a fresh medium. […] Then, the medium was aspirated and formed formazan crystals were solubilized by adding isopropanol-DMSO mixture (1:1 vol). The intensity of the dissolved crystals was measured using a UVM 340 reader (ASYS Hitech GmbH, Eugendorf, Austria) at a wavelength of 570 nm. Cell viability was estimated by the percentage of MTT reduction in cells to which the tested compounds were added, compared to the control sample, where only the medium was added. The experiments were repeated three times. The IC50 was calculated using GraphPad Prism 9.0.0 (GraphPad Software).

[7] = system: Micrococcus luteus ATCC 10240; test: Broth microdilution MIC/MBC, antibacterial; assay type: cell-based; conditions: ATCC10240
Experimental: (§4) The minimal inhibitory concentration (MIC) was determined with the microdilution technique using 96-well polystyrene microplates (Medlab, Poland), as indicated by the European Committee on Antimicrobial Susceptibility Testing (EUCAST) guidelines. In this process, stock solutions of each tested Schiff base dissolved in dimethylsulphoxide (DMSO, Stanlab, Poland) were used at a concentration of 50 mg/mL. Before in vitro antibacterial activity detection, the basic concentration of 1000 µg/mL of each compound was prepared with Mueller–Hinton broth medium (MHB, BioMaxima, Lublin, Poland). The experiment was prepared using Mueller–Hinton broth medium in 96-well microplates. A series of two-fold dilutions of the tested compounds in the concentration range from 0.49 to 1000 μg/mL was made in culture broth medium. Then, 2 μL of bacterial inoculum with a density of 0.5 McFarland standard was added to each well. Each well was filled with a total volume of 100 μL. Then, the microtiter plates were incubated for 18 ± 2 h at 35 °C. After the incubation, the results were spectrophotometrically determined in Biotek ELx800 (Biokom, Janki, Poland) at 600 nm (OD600). The lowest concentration of the tested compounds with the absence of bacterial growth was determined as an MIC. Three replicates for each strain and compound were performed.
as §2

[8] = system: Bacillus subtilis ATCC 6633; test: Broth microdilution MIC/MBC, antibacterial; assay type: cell-based; conditions: ATCC6633
Experimental: as §4, §2

[9] = system: Escherichia coli ATCC 25922; test: Broth microdilution MIC/MBC, antibacterial; assay type: cell-based; conditions: ATCC25922, Escherichia coli ATCC 25922
Experimental: as §4, §2

[10] = system: Staphylococcus aureus ATCC 6538; test: Broth microdilution MIC/MBC, antibacterial; assay type: cell-based; conditions: ATCC6538
Experimental: as §4, §2

[11] = system: Pseudomonas aeruginosa ATCC 27853; test: Broth microdilution MIC/MBC, antibacterial; assay type: cell-based; conditions: ATCC27853
Experimental: as §4, §2

[12] = system: Staphylococcus epidermidis ATCC 12228; test: Broth microdilution MIC/MBC, antibacterial; assay type: cell-based; conditions: ATCC12228
Experimental: as §4, §2

[13] = system: Klebsiella pneumoniae ATCC 13883; test: Broth microdilution MIC/MBC, antibacterial; assay type: cell-based; conditions: ATCC13883, Klebsiella pneumoniae ATCC 13883
Experimental: as §4, §2

MDA-MB-231 = test: MTT cell viability assay; assay type: cell-based, human; conditions: for IC50: Homo sapiens, MDA-MB-231, MTT, read-out: Cytotoxic activity IC50
Experimental: as §3

PC3 = test: MTT cell viability assay; assay type: cell-based, human; conditions: for IC50: Homo sapiens, PC-3, PC3, MTT, read-out: Cytotoxic activity IC50
Experimental: as §3

SMILES | MIC [1] | MIC [2] | MIC [3] | MFC ([3]; ATCC10231, read-out: MFC) | MIC [4] | MIC [5] | MIC [6] | MIC (Candida auris CDC B11903) | IC50 at 72 h (MTT cell viability assay; 72 h (table footnote)) | IC50 at 72 h (MTT cell viability assay; same value in µg/mL) | MIC [7] | MIC [8] | MIC [10] | MIC [11] | MIC [12] | IC50 (MDA-MB-231; 72 h (table footnote)) | IC50 (MDA-MB-231; same value in µg/mL) | IC50 (PC3; 72 h (table footnote)) | IC50 (PC3; same value in µg/mL) | melting point | other results
COc1ccc(C=Nn2c(-c3cccc(F)c3)n[nH]c2=S)cc1 [RO4, 5-(3-fluorophenyl)-4-[(4-methoxybenzylidene)amino]-2,4-dihydro-3H-1,2,4-triazole-3-thione] | 500 µg/mL (≈ 1.52 mM) | 1000 µg/mL (≈ 3.05 mM) | 62.5 µg/mL (≈ 0.19 mM) | > 1000 µg/mL | 1000 µg/mL (≈ 3.05 mM) | 1000 µg/mL (≈ 3.05 mM) | > 1000 µg/mL | 1000 µg/mL (≈ 3.05 mM) | > 100 µM | > 38.8 µg/mL | 125 µg/mL (≈ 0.381 mM) | 1000 µg/mL (≈ 3.05 mM) | 500 µg/mL (≈ 1.52 mM) | > 1000 µg/mL | 500 µg/mL (≈ 1.52 mM) | > 100 µM | > 38.8 µg/mL | > 100 µM | > 38.8 µg/mL | 215 to 216 °C | MFC [1]: > 1000 µg/mL; MFC [3]: >1000 µg/mL; MBC [7]: > 1000 µg/mL; MIC [9]: 1000 µg/mL (≈ 3.05 mM); MBC [10]: > 1000 µg/mL; MBC [11]: > 1000 µg/mL; MBC [12]: > 1000 µg/mL; MIC [13]: 1000 µg/mL (≈ 3.05 mM)
O=[N+]([O-])c1ccc(C=Nn2c(-c3cccc(F)c3)n[nH]c2=S)cc1 [RO3, 5-(3-fluorophenyl)-4-[(4-nitrobenzylidene)amino]-2,4-dihydro-3H-1,2,4-triazole-3-thione] | 1000 µg/mL (≈ 2.91 mM) | 500 µg/mL (≈ 1.46 mM) | 500 µg/mL (≈ 1.46 mM) | – | 1000 µg/mL (≈ 2.91 mM) | 1000 µg/mL (≈ 2.91 mM) | > 1000 µg/mL | 1000 µg/mL (≈ 2.91 mM) | > 100 µM | > 34.3 µg/mL | > 1000 µg/mL | > 1000 µg/mL | > 1000 µg/mL | > 1000 µg/mL | > 1000 µg/mL | > 100 µM | > 34.3 µg/mL | > 100 µM | > 34.3 µg/mL | 230 to 231 °C | MIC [9]: > 1000 µg/mL; MIC [13]: > 1000 µg/mL
Cc1cccc(C=Nn2c(-c3cccc(F)c3)n[nH]c2=S)c1 [RO9, 5-(3-fluorophenyl)-4-[(3-methylbenzylidene)amino]-2,4-dihydro-3H-1,2,4-triazole-3-thione] | > 1000 µg/mL | > 1000 µg/mL | 1000 µg/mL (≈ 3.2 mM) | > 1000 µg/mL | > 1000 µg/mL | > 1000 µg/mL | > 1000 µg/mL | > 1000 µg/mL | > 100 µM | > 31.2 µg/mL | 125 µg/mL (≈ 0.4 mM) | 500 µg/mL (≈ 1.6 mM) | 125 µg/mL (≈ 0.4 mM) | > 1000 µg/mL | 250 µg/mL (≈ 0.8 mM) | > 100 µM | > 31.2 µg/mL | > 100 µM | > 31.2 µg/mL | 232 to 234 °C | MBC [7]: > 1000 µg/mL; MBC [8]: > 1000 µg/mL; MBC [10]: > 1000 µg/mL; MBC [12]: > 1000 µg/mL
COc1ccccc1C=Nn1c(-c2cccc(F)c2)n[nH]c1=S [RO12, 5-(3-fluorophenyl)-4-[(2-methoxybenzylidene)amino]-2,4-dihydro-3H-1,2,4-triazole-3-thione] | 1000 µg/mL (≈ 3.05 mM) | 500 µg/mL (≈ 1.52 mM) | 125 µg/mL (≈ 0.381 mM) | > 1000 µg/mL | 500 µg/mL (≈ 1.52 mM) | > 1000 µg/mL | 500 µg/mL (≈ 1.52 mM) | 500 µg/mL (≈ 1.52 mM) | 98.1 µM | 38.1 µg/mL | > 1000 µg/mL | > 1000 µg/mL | > 1000 µg/mL | > 1000 µg/mL | > 1000 µg/mL | > 100 µM | > 38.8 µg/mL | > 100 µM | > 38.8 µg/mL | 140 to 143 °C | MFC [2]: > 1000 µg/mL; MFC [4]: > 1000 µg/mL; MFC [6]: > 1000 µg/mL; MFC (Candida auris CDC B11903): > 1000 µg/mL; MIC [9]: > 1000 µg/mL; MIC [13]: > 1000 µg/mL
COc1cccc2c1C(=O)c1c(O)c3c(c(O)c1C2=O)C[C@@](O)(C(=O)CO)C[C@@H]3O[C@H]1C[C@H](N)[C@H](O)[C@H](C)O1 [Doxorubicin, reference compound] | – | – | – | – | – | – | – | – | 0.3 µM | – | – | – | – | – | – | 0.83 µM | – | 0.3 µM | – | – | SI (Selectivity Index) (MDA-MB-231; IC50 normal cell line (HaCaT)/IC50 MDA-MB-231): 0.36; SI (Selectivity Index) (PC3; IC50 normal cell line (HaCaT)/IC50 PC3): 1
CCCOc1ccc(/C=N/n2c(-c3cccc(F)c3)n[nH]c2=S)cc1 [RO6, 5-(3-fluorofenylo)-4-[(4-propoxybenzylidene)amino]-2,4-dihydro-3H-1,2,4-triazole-3-thione] | – | – | – | – | – | – | – | – | – | – | – | – | – | – | – | – | – | – | – | 189 to 192 °C | –
